Measurements: publication PMC4948780, “PARP Inhibitors in Clinical Use Induce Genomic Instability in Normal Human Cells” (PLoS ONE, 2016)

Key:
EBV-BL [1] = experiment: Sister chromatid exchange (SCE) assay, BrdU differential staining; format: cell-based, human
Text: (§1) Human mammary epithelial cell lines used included non-tumorigenic diploid MCF-10A, HMEC-hTERT and tumorigenic MDA-MB-468 (basal) and MCF-7 (luminal). […] Blood samples were obtained from normal donor participants. The participants provided written informed consent to IRB protocol #95–054 approved by the Institutional Review Board at MSKCC. The original signed consent is then sent to the research participant’s medical record and a copy of the consent is given to the participant. The EBV-transformed B-lymphocyte cell line (EBV-BL) was generated by transformation of peripheral blood mononuclear cells (PBMC) with the B95.8 strain of EBV, as previously described. Primary T cells were generated from PBMC from two normal donors by non-specific activation with phytohemagglutinin and cultured in RPMI1640 and human serum AB for 4–14 days before use. E14 mES cell line was provided by M. Hooper, Brca1^-/- 236.44 mES cell line was provided by B. H. Koller, Brca2^lex1/lex2 mES cell line was provided by P. Hasty and Lexicon Genetics. E14 wild-type, Brca1^-/- 236.44, and Brca2^lex1/lex2 mES cell lines were cultured in standard ES media. Brca1^-/- 236.44 cells express a BRCA1 peptide deleted for sequences encoded by exon 11 [52], while Brca2^lex1/lex2 cells express a BRCA2 peptide deleted for the terminal exon 27 [53]. Olaparib was synthesized in the MSKCC Organic chemistry core facility. Veliparib and BSI-201 were purchased from Chemie Tek. The compounds were dissolved in DMSO and PBS. For clonogenic survival assays, MCF-10A (1000 cells), HMEC-hTERT (1000 cells), MDA-MB-468 (1500 cells) and mouse ES cell (2000 cells) were seeded, vehicle control or inhibitors were added at the indicated concentration 24 hours after seeding and changed every three days for continuous treatment. At 7–14 days, colonies were fixed with methanol and stained with Giemsa. For EBV-BL (6 × 10^6) and primary T cells (3.6 × 10^6) were continuously exposed to the indicated concentration of drug for 10 days at 0.6 × 10^6 cells/ml. Viable cells were scored by trypan blue exclusion.
(§2) To prepare metaphase spreads, exponentially growing cells were treated with 0.1–0.3 μg/ml of colcemid for 1–6 hr. Cells were collected and incubated in hypotonic solution (0.56% KCl), fixed in methanol: acetic acid (3:1), spotted to slides and air-dried. To measure chromosomal aberrations, the slides were stained with 2% Giemsa/Sorensen’s buffer. To visualize SCEs, the doubling time for each cell type was determined. Cells were incubated with 10 μM BrdU for two cell cycles. After metaphase spreads were prepared, the slides were treated with 0.5 μg/ml Hoechst 33258. The slides were exposed to black light for 20–60 min, incubated at 60°C for 2 hr, and stained in 4–10% Giemsa/Sorensen’s buffer.

HMEC-hTERT [2] = experiment: as above; format: cell-based, human; settings: 1 μM, 30.5 hr
Text: as §1, §2

MCF-10A = experiment: as above; format: cell-based, human
Text: as §1, §2

MCF-7 [3] = experiment: as above; format: cell-based, human; settings: 1 μM, 66.5 hr
Text: as §1, §2

MDA-MB-468 [4] = experiment: as above; format: cell-based, human; settings: 1 μM, 40 hr
Text: as §1, §2

primary T cell 1 = experiment: as above; format: cell-based, human; settings: 1 μM, 99 hr
Text: as §1, §2

primary T cell 2 [5] = experiment: as above; format: cell-based, human; settings: 1 μM, 70 hr
Text: as §1, §2

MCF-7 [6] = experiment: Chromosomal aberrations on metaphase spreads (Giemsa); format: cell-based, human; settings: 1 μM, 24 hrs
Description: as §2

HMEC-hTERT [7] = experiment: Clonogenic survival assay; format: cell-based; settings: Homo sapiens, read-out: IC50 of olaparib, continuous exposure
Text: as §1, with “Olaparib was synthesized in the MSKCC Organic chemistry core facility. Veliparib and BSI-201 were purchased from Chemie Tek. The compounds were dissolved in DMSO and PBS. For clonogenic survival assays, MCF-10A (1000 cells), HMEC-hTERT (1000 cells), MDA-MB-468 (1500 cells) and mouse ES cell (2000 cells) were seeded, vehicle control or inhibitors were added at the indicated concentration 24 hours after seeding and changed every three days for continuous treatment. At 7–14 days, colonies were fixed with methanol and stained with Giemsa. For EBV-BL (6 × 10^6) and primary T cells (3.6 × 10^6) were continuously exposed to the indicated concentration of drug for 10 days at 0.6 × 10^6 cells/ml.” left out

MDA-MB-468 [8] = experiment: Clonogenic survival assay; format: cell-based; settings: Homo sapiens, read-out: IC50 of olaparib, continuous exposure
Text: as §1, with “Olaparib was synthesized in the MSKCC Organic chemistry core facility. Veliparib and BSI-201 were purchased from Chemie Tek. The compounds were dissolved in DMSO and PBS. For clonogenic survival assays, MCF-10A (1000 cells), HMEC-hTERT (1000 cells), MDA-MB-468 (1500 cells) and mouse ES cell (2000 cells) were seeded, vehicle control or inhibitors were added at the indicated concentration 24 hours after seeding and changed every three days for continuous treatment. At 7–14 days, colonies were fixed with methanol and stained with Giemsa. For EBV-BL (6 × 10^6) and primary T cells (3.6 × 10^6) were continuously exposed to the indicated concentration of drug for 10 days at 0.6 × 10^6 cells/ml.” left out

EBV-BL [9] = experiment: Survival, trypan blue exclusion test of cell viability; format: cell-based, human
Text: as §1, with “Olaparib was synthesized in the MSKCC Organic chemistry core facility.” left out

primary T cell 2 [10] = experiment: as above; format: cell-based; settings: Homo sapiens, read-out: IC50 of olaparib, continuous exposure
Text: as §1, with “Olaparib was synthesized in the MSKCC Organic chemistry core facility. Veliparib and BSI-201 were purchased from Chemie Tek. The compounds were dissolved in DMSO and PBS. For clonogenic survival assays, MCF-10A (1000 cells), HMEC-hTERT (1000 cells), MDA-MB-468 (1500 cells) and mouse ES cell (2000 cells) were seeded, vehicle control or inhibitors were added at the indicated concentration 24 hours after seeding and changed every three days for continuous treatment. At 7–14 days, colonies were fixed with methanol and stained with Giemsa. For EBV-BL (6 × 10^6) and primary T cells (3.6 × 10^6) were continuously exposed to the indicated concentration of drug for 10 days at 0.6 × 10^6 cells/ml.” left out

[11] = patients on the olaparib-treated arm, prior cytotoxic chemotherapy; cited from earlier work

O=C(c1cc(Cc2n[nH]c(=O)c3ccccc23)ccc1F)N1CCN(C(=O)C2CC2)CC1 [olaparib]
Mean no. SCE / metaphase ± SD (EBV-BL [1]; 0.1 μM): 26.0 ± 6.4 | Mean no. SCE / metaphase ± SD (EBV-BL [1]; 0.5 μM): 36.2 ± 7.4 | Mean no. SCE / chromosome ± SD (EBV-BL [1]; 1 μM, 87 hr): 1.13 ± 0.23 | Mean no. SCE / metaphase ± SD (EBV-BL [1]; 1 μM, 87 hr): 51.6 ± 10.6 | Mean no. SCE / chromosome ± SD (HMEC-hTERT [2]): 1.30 ± 0.22 | Mean no. SCE / metaphase ± SD (HMEC-hTERT [2]): 59.7 ± 10.0 | Mean no. SCE / metaphase ± SD (MCF-10A; 0.1 μM): 33.0 ± 4.9 | Mean no. SCE / metaphase ± SD (MCF-10A; 0.5 μM): 52.2 ± 9.8 | Mean no. SCE / chromosome ± SD (MCF-10A; 1 μM, 30 hr): 1.57 ± 0.24 | Mean no. SCE / metaphase ± SD (MCF-10A; 1 μM, 30 hr): 73.5 ± 10.9 | Mean no. SCE / metaphase ± SD (MCF-7 [3]): 152.4 ± 21.9 | Mean no. SCE / chromosome ± SD (MDA-MB-468 [4]): 1.97 ± 0.38 | Mean no. SCE / metaphase ± SD (MDA-MB-468 [4]): 107.9 ± 21.0 | Mean no. SCE / chromosome ± SD (primary T cell 1): 0.90 ± 0.20 | Mean no. SCE / metaphase ± SD (primary T cell 1): 41.3 ± 9.3 | Mean no. SCE / chromosome ± SD (primary T cell 2 [5]): 0.94 ± 0.21 | Mean no. SCE / metaphase ± SD (primary T cell 2 [5]): 43.0 ± 9.7 | total chromatid-type aberrations / metaphase (mean ± SEM) (MCF-7 [6]): 1.39 ± 0.14 | chromatid-type radial chromosome (MCF-7 [6]; 100 metaphases): 4 | chromatid-type telomere association (MCF-7 [6]; 100 metaphases): 1 | chromosome-type dicentric (MCF-7 [6]; 100 metaphases): 4 | chromosome-type gap/break (MCF-7 [6]; 100 metaphases): 8 | IC50 (HMEC-hTERT [7]): 5.5 µM | IC50 (MDA-MB-468 [8]): 0.6 µM | survival (mean ± SD) (EBV-BL [9]; EBV-BL, 1 μM): 92.6 ± 7.4% | IC50 (EBV-BL [9]; Homo sapiens, 240 h, read-out: IC50 (cell survival), EBV-BL, continuous exposure 10 days, trypan blue exclusion): 3.6 µM | IC50 (primary T cell 2 [10]): 2.7 µM | incidence of myelodysplastic syndrome and acute myelogenous leukemia [11]: 2.2%
